Data reported in US20120122820A1, “PRODRUGS AND THE USE THEREOF” (Bayer Schering Pharma Aktiengesellschaft, priority 2007, published 2012).
Converted amounts (≈) assume the structure as drawn. Where a name gives a salt, the structure may show the parent alone.

Legend:
[1] = Determination of the solubility (24 h shaking at room temperature, ultracentrifugation, HPLC); assay type: physicochemical; settings: thermodynamic from solid
Description: The test substance is suspended in water or dilute hydrochloric acid (pH 4) [Examples 1-21] or in 5% strength aqueous dextrose solution [Examples 22-40]. This suspension is shaken at room temperature for 24 h. After ultracentrifugation at 224 000 g for 30 min, the supernatant is diluted with DMSO and analyzed by HPLC. A two-point calibration plot of the test compound in DMSO is used for quantification.
Agilent 1100 with DAD (G1315A), quat. pump (G1311A), autosampler CTC HTS PAL, degasser (G1322A) and column thermostat (G1316A); column: Phenomenex Gemini C18, 5 μm, 50 mm×2 mm; temperature: 40° C.; eluent A: water/phosphoric acid pH 2, eluent B: acetonitrile; flow rate: 0.7 ml/min; gradient: 0-0.5 min 85% A, 15% B; ramp 0.5-3 min 10% A, 90% B; 3-3.5 min 10% A, 90% B; ramp 3.5-4 min 85% A, 15% B; 4-5 min 85% A, 15% B.
Agilent 1100 with DAD (G1315A), quat. pump (G1311A), autosampler CTC HTS PAL, degasser (G1322A) and column thermostat (G1316A); column: VDSoptilab Kromasil 100 C18, 3.5 μm, 60 mm×2.1 mm; temperature: 30° C.; eluent A: water+5 ml of perchloric acid/liter, eluent B: acetonitrile; flow rate: 0.75 ml/min; gradient: 0-0.5 min 98% A, 2% B; ramp 0.5-4.5 min 10% A, 90% B; 4.5-6 min 10% A, 90% B; ramp 6.5-6.7 min 98% A, 2% B; 6.7-7.5 min 98% A, 2% B.

[2] = system: heart rate of anesthetized rats; experiment: Influence on the heart rate of anesthetized rats; assay type: in vivo; settings: maximum decrease in the first 30 min after i.v. bolus of 100 μg/kg of (A) or equivalent dosages; anesthetized male Wistar rats
Description: Male Wistar rats with a body weight above 250 g are employed. In the night before the experiment, the animals receive no feed but still have free access to drinking water. Preparation and investigations are carried out under Trapanal® anesthesia (100 mg/kg i.p.). Injection and infusion take place through a catheter in the jugular vein, and the blood pressure is recorded via a catheter in the femoral artery (transducer: Braun, Melsungen). After the preparation, the animals are connected to a continuous infusion of physiological saline solution to compensate fluid losses. Test substance or placebo solution are administered intravenously as bolus after an equilibration time of about 1 h. Heart rate and arterial blood pressure are recorded during the equilibration and over a period of at least 30 min after the bolus injection with the aid of a digital evaluation program.
Table 5 lists the maximum heart rate decrease in the first 30 min after an i.v. bolus of 100 μg/kg of the active substance (A) or of equivalent dosages of representative exemplary embodiments: […]

[3] = Oral pharmacokinetics in Wistar rats; assay type: in vivo; settings: after oral administration (gavage), male Wistar rats
Description: (§1) On the day before administration of the substance, a catheter for obtaining blood is implanted in the jugular vein of the experimental animals (male Wistar rats, body weight 200-250 g) under Isofluran® anesthesia.
(§2) On the day of the experiment, a defined dose of the test substance is administered as solution into the stomach by gavage. Blood samples (8-12 time points) are taken through the catheter sequentially over the course of 24 h after administration of the substance. Plasma is obtained by centrifuging the samples in heparinized tubes. Acetonitrile is added to a defined plasma volume per time point to precipitate proteins. After centrifugation, test substance and, where appropriate, known cleavage products of the test substance in the supernatant are determined quantitatively using a suitable LC/MS-MS method.
The measured plasma concentrations are used to calculate pharmacokinetic parameters of the test substance and of the active ingredient compound (A) liberated therefrom, such as AUC, Cmax, T1/2 (half-life).

[4] = i.v. pharmacokinetics in Wistar rats; assay type: in vivo; settings: after i.v. bolus administration, male Wistar rats
Description: as §1
as §2, with “tail vein using a Hamilton® glass syringe (bolus administration, duration of administration <10 s).” for “stomach by gavage.”
The measured plasma concentrations are used to calculate pharmacokinetic parameters of the test substance and of the active ingredient compound (A) liberated therefrom, such as AUC, Cmax, T1/2 (half-life) and CL (clearance).

[5] = Stability in buffer at various pH values; assay type: physicochemical
Description: 0.3 mg of the test substance is weighed into a 2 ml HPLC vial and 0.5 ml of acetonitrile or acetonitrile/DMSO (9:1) is added. The substance is dissolved by putting the sample vessel in an ultrasonic bath for about 10 seconds. Then 0.5 ml of the respective (buffer) solution is added, and the sample is again treated in the ultrasonic bath.
• pH 4: 1 liter of Millipore water is adjusted to pH 4.0 with 1 N hydrochloric acid; • pH 5: 0.096 mol of citric acid and 0.2 mol of sodium hydroxide ad 1 liter of water; • pH 7.4: 90.0 g of sodium chloride, 13.61 g of potassium dihydrogen phosphate and 83.35 g of 1 N sodium hydroxide solution are made up to 1 liter with water; this solution is then further diluted 1:10 with Millipore water. • pH 8: 0.013 mol of borax and 0.021 mol of hydrochloric acid ad 1 liter of water.
5 μl portions of the sample solution are analyzed by HPLC for their content of unchanged test substance, and of parent substance (A) produced, every hour over a period of 24 hours at 37° C. The percentage areas of the appropriate peaks are used for quantification.
HPLC method for Examples 1-21:
Agilent 1100 with DAD (G1314A), binary pump (G1312A), autosampler (G1329A), column oven (G1316A), thermostat (G1330A); column: Kromasil 100 C18, 60 mm×2.1 mm, 3.5 μm; column temperature: 30° C.; eluent A: water+5 ml of perchloric acid/liter, eluent B: acetonitrile; gradient: 0-1.0 min 98% A, 2% B; 1.0-9.0 min 2% A, 98% B; 9.0-13.0 min 2% A, 98% B; 13.0-13.5 min 98% A, 2% B; 13.5-15.0 min 98% A, 2% B; flow rate: 0.75 ml/min; UV detection: 210 nm.
HPLC method for Examples 22-40:
The ratios of the peak areas (F) at the respective time points in relation to the peak areas at the starting time are shown in Table 3 for representative exemplary embodiments: […]

[6] = saline or isotonic, 5% strength aqueous dextrose solution
[7] = aqueous buffer, dilute hydrochloric acid (pH 4)

SMILES	solubility at 24 h [1, 6] [µg/mL]	Heart rate decrease [2] [%]	Detectability of the test substance (prodrug) in plasma [3]	Detectability of the test substance (prodrug) in plasma [4]	% test substance after 4 h [F(t = 4 h) × 100/F(t = 0 h)] ([5]; pH 4, 37° C.) [%]	% test substance after 24 h [F(t = 24 h) × 100/F(t = 0 h)] ([5]; pH 4, 37° C.) [%]	% test substance after 4 h [F(t = 4 h) × 100/F(t = 0 h)] ([5]; pH 7.4, 37° C.) [%]	% test substance after 24 h [F(t = 24 h) × 100/F(t = 0 h)] ([5]; pH 7.4, 37° C.) [%]	solubility at 24 h [1, 7] [µg/mL]	% test substance after 4 h [F(t = 4 h) × 100/F(t = 0 h)] ([5]; pH 8, 37° C.) [%]	% test substance after 24 h [F(t = 24 h) × 100/F(t = 0 h)] ([5]; pH 8, 37° C.) [%]
N#Cc1c(N)nc(SCc2csc(-c3ccc(Cl)cc3)n2)c(C#N)c1-c1ccc(OCCOC(=O)[C@@H](N)CCCN)cc1 [Example 22, 2-{4-[2-Amino-6-({[2-(4-chlorophenyl)-1,3-thiazol-4-yl]methyl}thio)-3,5-dicyanopyridin-4-yl]-phenoxy}ethyl L-ornithinate dihydrochloride]	> 500	13	no longer detectable in plasma even at the first measurement point	no longer detectable in plasma even at the first measurement point	100	100	0	0			
N#Cc1c(N)nc(SCc2csc(-c3ccc(Cl)cc3)n2)c(C#N)c1-c1ccc(OCCOC(=O)CCC(=O)O)cc1 [Example 19, 4-(2-{4-[2-Amino-6-({[2-(4-chlorophenyl)-1,3-thiazol-4-yl]methyl}thio)-3,5-dicyanopyridin-4-yl]-phenoxy}ethoxy)-4-oxobutanoic acid hydrochloride]		18	no longer detectable in plasma even at the first measurement point						57		
CN(C)CC(=O)OCCOc1ccc(-c2c(C#N)c(N)nc(SCc3csc(-c4ccc(Cl)cc4)n3)c2C#N)cc1 [Example 15, 2-{4-[2-Amino-6-({[2-(4-chlorophenyl)-1,3-thiazol-4-yl]methyl}thio)-3,5-dicyanopyridin-4-yl]-phenoxy}ethyl (N,N-dimethyl)glycinate]		21	no longer detectable in plasma even at the first measurement point	no longer detectable in plasma even at the first measurement point	93	91			240 (≈ 397 µM)	90	76
N#Cc1c(N)nc(SCc2csc(-c3ccc(Cl)cc3)n2)c(C#N)c1-c1ccc(OCCOC(=O)CN)cc1 [Example 5, 2-{4-[2-Amino-6-({[2-(4-chlorophenyl)-1,3-thiazol-4-yl]methyl}thio)-3,5-dicyanopyridin-4-yl]-phenoxy}ethyl glycinate]		21	no longer detectable in plasma even at the first measurement point	no longer detectable in plasma even at the first measurement point	100	100				94	68
N#Cc1c(N)nc(SCc2csc(-c3ccc(Cl)cc3)n2)c(C#N)c1-c1ccc(OCCOP(=O)(O)O)cc1 [Example 1, 2-{4-[2-Amino-6-({[2-(4-chlorophenyl)-1,3-thiazol-4-yl]methyl}thio)-3,5-dicyanopyridin-4-yl]-phenoxy}ethyl dihydrogenphosphate]		16		no longer detectable in plasma even at the first measurement point	100	100				100	100
N#Cc1c(N)nc(SCc2csc(-c3ccc(Cl)cc3)n2)c(C#N)c1-c1ccc(OCCO)cc1 [compound (A), 2-amino-6-({[2-(4-chlorophenyl)-1,3-thiazol-4-yl]methyl}thio)-4-[4-(2-hydroxy-ethoxy)phenyl]pyridine-3,5-dicarbonitrile, reference compound]	< 0.1	24							< 1		
